# Assay results taken from patent publication US9504251B2, “Pesticidal compositions and related methods” (Dow AgroSciences LLC, priority 2014, dated 2016).
# Legend:
# [1] = system: Green Peach Aphid (Myzus persicae) (GPA) (MYZUPE); experiment: Green peach aphid (GPA) foliar spray bioassay on cabbage seedlings; assay type: in vivo; details: 72 h, 200 ppm foliar spray on cabbage seedlings, graded after three days, Abbott-corrected % control, disclosed compounds (TABLE 2), read-out: GPA % Control (or Mortality) rating
# Experimental: Bioassay for GPA was prepared as follows: Cabbage seedlings grown in 3-inch pots, with 2-3 small (3-5 cm) true leaves, were used as test substrate. The seedlings were infested with 20-50 GPA (adult and nymph stages) one day prior to chemical application. Four pots with individual seedlings were used for each treatment. The tested compounds (2 mg) were dissolved in 2 mL of acetone/methanol (1:1) solvent to form stock solutions of 1000 ppm tested compound. The stock solutions were diluted five times with an aqueous solution containing 0.025% TWEEN® 20 surfactant, which is polyoxyethylene (20) sorbitan monolaurate, to obtain the solution at 200 ppm tested compound. A hand-held aspirator-type sprayer was used for spraying the solution to both sides of cabbage leaves until runoff. The control plants (solvent check) were sprayed with the diluent only containing 20% by volume of acetone/methanol (1:1) solvent. Treated plants were held in a holding room for three days at approximately 25° C. and ambient relative humidity (RH) prior to grading. Evaluation was conducted by counting the number of live aphids per plant under a microscope. Percent control was measured by using Abbott's correction formula (W. S. Abbott, “A Method of Computing the Effectiveness of an Insecticide,” J. Econ. Entomol. 18 (1925), pp. 265-267) as follows. Corrected % Control=100*(X−Y)/X
# X=No. of live aphids on solvent check plants and
# Y=No. of live aphids on treated plants
# (§1) The comparative compounds were tested for insecticidal activities against GPA and WF pests using the same test protocols described above for the disclosed compounds.
# [2] = system: Sweetpotato Whitefly-crawler (Bemisia tabaci) (WF) (BEMITA); experiment: Sweetpotato whitefly-crawler (WF) foliar spray assay on cotton plants; assay type: in vivo; details: 216 h, 200 ppm foliar spray on cotton plants, graded after 9 days, Abbott-corrected % control, disclosed compounds (TABLE 2), read-out: WF % Control (or Mortality) rating
# Experimental: Foliar spray assay for WF was prepared as follows: Cotton plants (Gossypium hirsutum) grown in 3-inch pots, with 1 small (4-5 cm) true leaf, were used as test substrate. The plants were infested with 200-400 whitefly eggs 4-5 days prior to chemical application. Four pots with individual plants were used for each treatment. Tested compounds (2 mg) were dissolved in 1 mL of acetone solvent, forming stock solutions of 2000 ppm tested compound.
# The stock solutions were diluted ten times with 0.025% TWEEN® 20 surfactant in H2O (diluents) to obtain the solution at 200 ppm tested compound. A hand-held aspirator-type sprayer was used for spraying the solution to both sides of cotton leaves until runoff. The control plants (solvent check) were sprayed with the diluent only containing 10% by volume of acetone solvent. Treated plants were held in a holding room for 9 days at approximately 25° C. and ambient relative humidity (RH) prior to grading. Evaluation was conducted by counting the number of live 3-4 nymph stage per plant under a microscope. Percent control was measured by using Abbott's correction formula (W. S. Abbott, “A Method of Computing the Effectiveness of an Insecticide,” J. Econ. Entomol. 18 (1925), pp. 265-267) as follows. Corrected % Control=100*(X−Y)/X
# X=No. of live nymphs on solvent check plants and
# Y=No. of live nymphs on treated plants.
# as §1
SMILES,mortality at 200 ppm [1] [%],mortality at 200 ppm [2] [%]
"O=C1c2cn(-c3cccnc3)nc2CCN1c1cccc(C(F)(F)F)c1 [Compound F4, 2-(3-Pyridyl)-5-[3-(trifluoromethyl)phenyl]-6,7-dihydropyrazolo[4,3-c]pyridin-4-one]",80 to 100,0 to 80
"O=C1c2cn(-c3cccnc3)nc2CCN1c1ccnc(C(F)(F)F)c1 [Compound F5, 2-(3-Pyridyl)-5-[2-(trifluoromethyl)-4-pyridyl]-6,7-dihydropyrazolo[4,3-c]pyridin-4-one]",80 to 100,0 to 80
"CC(C)N1CCc2nn(-c3cccnc3)cc2C1=O [Compound F6, 5-Isopropyl-2-(3-pyridyl)-6,7-dihydropyrazolo[4,3-c]pyridin-4-one]",80 to 100,80 to 100
"O=C1c2cn(-c3cccnc3)nc2CCN1c1cc(C(F)(F)F)ccn1 [Compound F7, 2-(3-Pyridyl)-5-[4-(trifluoromethyl)-2-pyridyl]-6,7-dihydropyrazolo[4,3-c]pyridin-4-one]",80 to 100,80 to 100
"CCOC(=O)CN1CCc2nn(-c3cccnc3)cc2C1=O [Compound F8, ethyl 2-(4-oxo-2-(pyridin-3-yl)-6,7-dihydro-2H-pyrazolo[4,3-c]pyridin-5(4H)-yl)acetate]",80 to 100,80 to 100
"O=C1c2cn(-c3cccnc3)nc2CCN1c1ncccc1C(F)(F)F [Compound F10, 2-(3-Pyridyl)-5-[3-(trifluoromethyl)-2-pyridyl]-6,7-dihydropyrazolo[4,3-c]pyridin-4-one]",0 to 80,0 to 80
"CSCCC(=O)N1CCc2nn(-c3cccnc3)cc2C1=O [Compound F12, 5-(3-(methylthio)propanoyl)-2-(pyridin-3-yl)-6,7-dihydro-2H-pyrazolo[4,3-c]pyridin-4(5H)-one]",80 to 100,0 to 80
"O=C1c2cn(-c3cccnc3)nc2CCN1c1ccc(C(F)(F)F)cc1 [Compound F13, 2-(3-Pyridyl)-5-[4-(trifluoromethyl)phenyl]-6,7-dihydropyrazolo[4,3-c]pyridin-4-one]",80 to 100,0 to 80
"O=C1c2cn(-c3cccnc3)nc2CCN1c1ccc(OC(F)(F)F)cc1 [Compound F14, 2-(3-Pyridyl)-5-[4-(trifluoromethoxy)phenyl]-6,7-dihydropyrazolo[4,3-c]pyridin-4-one]",80 to 100,0 to 80
"COc1ccccc1CN1CCc2nn(-c3cccnc3)cc2C1=O [Compound F15, 5-[(2-Methoxyphenyl)methyl]-2-(3-pyridyl)-6,7-dihydropyrazolo[4,3-c]pyridin-4-one]",0 to 80,80 to 100
"O=C1c2cn(-c3cccnc3)nc2CCN1Cc1ccccc1F [Compound F17, 5-(2-fluorobenzyl)-2-(pyridin-3-yl)-6,7-dihydro-2H-pyrazolo[4,3-c]pyridin-4(5H)-one]",0 to 80,80 to 100
"COc1cccc(N2CCc3nn(-c4cccnc4)cc3C2=O)n1 [Compound F18, 5-(6-Methoxy-2-pyridyl)-2-(3-pyridyl)-6,7-dihydropyrazolo[4,3-c]pyridin-4-one]",0 to 80,0 to 80
"O=C1c2cn(-c3cccnc3)nc2CCN1CCSCCC(F)(F)F [Compound F19, 2-(pyridin-3-yl)-5-(2-((3,3,3-trifluoropropyl)thio)ethyl)-6,7-dihydro-2H-pyrazolo[4,3-c]pyridin-4(5H)-one]",80 to 100,80 to 100
"CSCN1CCc2nn(-c3cccnc3)cc2C1=O [Compound F20, 5-(Methylsulfanylmethyl)-2-(3-pyridyl)-6,7-dihydropyrazolo[4,3-c]pyridin-4-one]",80 to 100,80 to 100
"O=C1c2cn(-c3cccnc3)nc2CCN1c1cncc(C(F)(F)F)c1 [Compound F21, 2-(3-Pyridyl)-5-[5-(trifluoromethyl)-3-pyridyl]-6,7-dihydropyrazolo[4,3-c]pyridin-4-one]",80 to 100,80 to 100
"O=C1c2cn(-c3cccnc3)nc2CCN1c1cccc(OC(F)(F)F)c1 [Compound F22, 2-(3-Pyridyl)-5-[3-(trifluoromethoxy)phenyl]-6,7-dihydropyrazolo[4,3-c]pyridin-4-one]",80 to 100,80 to 100
"COc1ccc(CN2CCc3nn(-c4cccnc4)cc3C2=O)cc1 [Compound F23, 5-[(4-Methoxyphenyl)methyl]-2-(3-pyridyl)-6,7-dihydropyrazolo[4,3-c]pyridin-4-one]",80 to 100,80 to 100
"CN1CCc2nn(-c3cccnc3)cc2C1=O [Compound F28, 5-methyl-2-(pyridin-3-yl)-6,7-dihydro-2H-pyrazolo[4,3-c]pyridin-4(5H)-one]",80 to 100,0 to 80
"O=C1c2cn(-c3cccnc3)nc2CCN1Cc1cccc(C(F)(F)F)c1 [Compound F29, 2-(3-Pyridyl)-5-[[3-(trifluoromethyl)phenyl]methyl]-6,7-dihydropyrazolo[4,3-c]pyridin-4-one]",80 to 100,80 to 100
"C=CCN1CCc2nn(-c3cccnc3)cc2C1=O [Compound F31, 5-allyl-2-(pyridin-3-yl)-6,7-dihydro-2H-pyrazolo[4,3-c]pyridin-4(5H)-one]",80 to 100,0 to 80
"O=C1c2cn(-c3cccnc3)nc2CCN1Cc1ccccc1C(F)(F)F [Compound F32, 2-(3-Pyridyl)-5-[[2-(trifluoromethyl)phenyl]methyl]-6,7-dihydropyrazolo[4,3-c]pyridin-4-one]",0 to 80,80 to 100
"O=C1c2cn(-c3cccnc3)nc2CCN1c1ccc(C(F)(F)F)nc1 [Compound F33, 2-(3-Pyridyl)-5-[6-(trifluoromethyl)-3-pyridyl]-6,7-dihydropyrazolo[4,3-c]pyridin-4-one]",80 to 100,0 to 80
"O=C1c2cn(-c3cccnc3)nc2CCN1c1ncccn1 [Compound F34, 2-(3-Pyridyl)-5-pyrimidin-2-yl-6,7-dihydropyrazolo[4,3-c]pyridin-4-one]",80 to 100,80 to 100
"O=C1c2cn(-c3cccnc3)nc2CCN1c1ccc(C(F)(F)F)cn1 [Compound F37, 2-(pyridin-3-yl)-5-(5-(trifluoromethyl)pyrdin-2-yl)-6,7-dihydro-2H-pyrazolo[4,3-c]pyridin-4(5H)-one]",80 to 100,80 to 100
"O=C1c2cn(-c3cccnc3)nc2CCN1c1cccc(-c2ncccn2)n1 [Compound F38, 2-(3-Pyridyl)-5-(6-pyrimidin-2-yl-2-pyridyl)-6,7-dihydropyrazolo[4,3-c]pyridin-4-one]",0 to 80,< 0
"N#CCN1CCc2nn(-c3cccnc3)cc2C1=O [Compound F39, 2-[4-Oxo-2-(3-pyridyl)-6,7-dihydropyrazolo[4,3-c]pyridin-5-yl]acetonitrile]",80 to 100,0 to 80
"CSCCN1CCc2nn(-c3cccnc3)cc2C1=O [Compound F40, 5-(2-(methylthio)ethyl)-2-(pyridin-3-yl)-6,7-dihydro-2H-pyrazolo[4,3-c]pyridin-4(5H)-one]",80 to 100,80 to 100
